The values below come from EP4273147A1, “SUBSTITUTED SPIROLACTAMS, SALTS THEREOF AND THEIR USE AS HERBICIDALLY ACTIVE SUBSTANCES” (Bayer Aktiengesellschaft, priority 2022, dated 2023).

The subject of assay [1] is POAAN. Put plainly: Herbicidal pre-emergence action (Table A7). Format: in vivo, Poa annua. The following applies: visual grading after ca. 3 weeks. Summed up: (§1)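 Pots: sandy loam. Sowing: one mono- and one dicot weed species together per pot. Seeds covered with soil.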
Assay [2] deals with KCHSC. Put plainly: Herbicidal pre-emergence action (Table A10). Type of assay: in vivo, Kochia scoparia. The following applies: application rate 1280 g/ha; visual grading after ca. 3 weeks. A digest of the protocol:
as §1

In assay [3] the test system is DIGSA. Nature of the assay: Herbicidal pre-emergence action (Table A12). Format: in vivo, Digitaria sanguinalis. The following applies: visual grading after ca. 3 weeks. A digest of the protocol: as §1
Assay [4] relates to LOLRI. Put plainly: Herbicidal pre-emergence action (Table A3). Format: in vivo, Lolium rigidum. The following applies: application rate 1280 g/ha; visual grading after ca. 3 weeks. A digest of the protocol: as §1
The subject of assay [5] is AMARE. Put plainly: Herbicidal pre-emergence action (Table A8). The following applies: application rate 1280 g/ha; visual grading after ca. 3 weeks vs untreated controls (100% = plants have died off, 0% = as control plants). Format: in vivo, Amaranthus retroflexus. The text has this:
Seeds of mono- and dicotyledonous weed plants were sown in plastic pots (double sowings with one species of mono- and one species of dicotyledonous weed plants per pot), in sandy loam, and covered with soil.

Assay [6] deals with STEME. Nature of the assay: Herbicidal pre-emergence action (Table A6). Format: in vivo, Stellaria media. The following applies: visual grading after ca. 3 weeks. Summed up:
as §1

In assay [7] the test system is ECHCG. Nature of the assay: Herbicidal pre-emergence action (Table A2). Type of assay: in vivo, Echinochloa crus-galli. The following applies: application rate 1280 g/ha; visual grading after ca. 3 weeks. Summed up: as §1
Assay [8] deals with SETVI. Nature of the assay: Herbicidal pre-emergence action (Table A5). Type of assay: in vivo, Setaria viridis. The following applies: application rate 1280 g/ha; visual grading after ca. 3 weeks. Summed up: as §1
For assay [9], the system named is MATIN. Put plainly: Herbicidal pre-emergence action (Table A4). Format: in vivo, Matricaria inodora. The settings on record: application rate 1280 g/ha; visual grading after ca. 3 weeks. A digest of the protocol: as §1
Assay [10] relates to ECHCG. Put plainly: Herbicidal post-emergence action (Table B3). The following applies: application rate 1280 g/ha; rated visually after about 3 weeks. Type of assay: in vivo, Echinochloa crus-galli. A digest of the protocol:
(§2)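 Greenhouse pot assay, sandy loam soil, one weed species per pot. Application at one-leaf stage. Readout ~3 wk post-treatment: visual % activity, 100 = dead, 0 = as untreated.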

The subject of assay [11] is MATIN. Put plainly: Herbicidal post-emergence action (Table B6). Type of assay: in vivo, Matricaria inodora. The settings on record: application rate 1280 g/ha; rated visually after about 3 weeks. The procedure:
(§3) Seeds of mono- and dicotyledonous weed plants were placed in plastic pots in sandy loam soil (doubly sown with in each case one species of mono- or dicotyledonous weed plants per pot), covered with soil and cultivated in a greenhouse under controlled growth conditions. 2 to 3 weeks after sowing, the test plants were treated at the one-leaf stage. […] After the test plants had been kept in the greenhouse under optimum growth conditions for about 3 weeks, the activity of the preparations was rated visually in comparison to untreated controls. For example, 100% activity = the plants have died, 0% activity = like control plants.

Assay [12] relates to AMARE. Nature of the assay: Herbicidal post-emergence action (Table B11). Type of assay: in vivo, Amaranthus retroflexus. The settings on record: application rate 1280 g/ha. The procedure: as §3
Assay [13] has as its system POAAN. Nature of the assay: Herbicidal post-emergence action (Table B7). Format: in vivo, Poa annua. The following applies: application rate 1280 g/ha. Summed up:
as §2

In assay [14] the test system is ABUTH. Nature of the assay: Herbicidal post-emergence action (Table B1). Format: in vivo, Abutilon theophrasti. The following applies: application rate 1280 g/ha; treated at one-leaf stage; rated visually after about 3 weeks vs untreated controls (100% = plants have died, 0% = like control plants). The method, then: as §3

In the case of `O=C1N(Cc2ccccc2)CCC12CCCN(Cc1cccc(F)c1F)C2=O` (racemic) [I-084], the “pre-emergence activity against POAAN” value in [1] (application rate 320 g/ha) came to 100%. The “pre-emergence activity against KCHSC” value in assay [2] amounted to 90%. Also, the “pre-emergence activity against DIGSA” value in assay [3] (application rate 1280 g/ha) is recorded as 100%. Also, in assay [4], the “pre-emergence activity against LOLRI” value worked out at 100%. The “pre-emergence activity against AMARE” value in assay [5] was 90%. For the same compound, the “pre-emergence activity against STEME” value in assay [6] (application rate 1280 g/ha) is given as 90%. Further, the “pre-emergence activity against ECHCG” value in assay [7] is 100%. Also, the “pre-emergence activity against SETVI” value in assay [8] amounted to 100%. Besides, the “pre-emergence activity against MATIN” value in assay [9] is listed as 90%.

As for `O=C1N(Cc2ccsc2)CCCC12CCCN(Cc1ccsc1)C2=O` (racemic) [I-046], the “pre-emergence activity against POAAN” value in assay [1] (application rate 1280 g/ha) is 100%. Besides, the “pre-emergence activity against DIGSA” value in assay [3] (application rate 1280 g/ha) is recorded as 90%. Besides, the “pre-emergence activity against LOLRI” value in [4] was found to be 90%. In assay [5], the “pre-emergence activity against AMARE” value came to 90%. The “pre-emergence activity against STEME” value in assay [6] (application rate 320 g/ha) worked out at 100%. Also, in assay [7], the “pre-emergence activity against ECHCG” value is 100%. Moreover, the “pre-emergence activity against SETVI” value in [8] worked out at 90%.

As for `O=C1N(Cc2c(F)cccc2F)CCC12CCN(Cc1c(F)cccc1F)C2=O` (racemic) [I-101], the “pre-emergence activity against POAAN” value in assay [1] (application rate 1280 g/ha) worked out at 100%. Also, the “pre-emergence activity against KCHSC” value in assay [2] is 90%. The “pre-emergence activity against LOLRI” value in [4] turned out to be 90%. For the same compound, the “post-emergence activity against ECHCG” value in assay [10] was 90%. Further, in [11], the “post-emergence activity against MATIN” value came to 90%. The “post-emergence activity against AMARE” value in assay [12] was found to be 90%. Also, the “pre-emergence activity against ECHCG” value in [7] came to 90%. Besides, in assay [13], the “post-emergence activity against POAAN” value was found to be 90%. The “pre-emergence activity against SETVI” value in assay [8] is 90%. The “pre-emergence activity against MATIN” value in assay [9] came to 90%.

Consider `Cc1ccccc1CN1CCC2(CCCN(Cc3c(F)cccc3F)C2=O)C1=O` (racemic) [I-058], for which the “pre-emergence activity against POAAN” value in [1] (application rate 320 g/ha) is 100%. Further, the “pre-emergence activity against KCHSC” value in [2] turned out to be 90%. Further, the “pre-emergence activity against DIGSA” value in [3] (application rate 320 g/ha) is recorded as 90%. Moreover, the “pre-emergence activity against LOLRI” value in [4] is given as 90%. Moreover, in assay [10], the “post-emergence activity against ECHCG” value is reported as 90%. Besides, the “pre-emergence activity against STEME” value in assay [6] (application rate 320 g/ha) worked out at 90%. Also, in assay [7], the “pre-emergence activity against ECHCG” value is 100%. The “post-emergence activity against POAAN” value in assay [13] stood at 90%. Besides, in assay [8], the “pre-emergence activity against SETVI” value turned out to be 90%. Also, the “pre-emergence activity against MATIN” value in [9] is on record as 90%. Further, in assay [14], the “post-emergence activity against ABUTH” value is 90%.
